The assay concerns HIV-1. The class given is cell-based. Particulars: for Inhibition Ratio (Number of viral particles/ml in control)/(Number with drug added): 1 μg/ml test compound mixed with HIV-1 (10^5 infectious units) at 37° C. for 2 hours, cells cultured six days; for viral inactivation (in words): at these concentrations (1 μg/ml). The method, then: HIV-1 (10^5 infectious units) was mixed with 1 μg/ml of test compound at 37° C. for 2 hours. Test cells were innoculated with the mixture for two hours. The cells were then washed three times with PBS and cultured for six days.

Turning to Dextran sulfate, the “Inhibition Ratio (Number of viral particles/ml in control)/(Number with drug added)” value came out at 1 and the “viral inactivation (in words)” value was “do not show significant activation”.
Consider pentosan sulfate [Pentosan Sultate], for which the “Inhibition Ratio (Number of viral particles/ml in control)/(Number with drug added)” value is listed as 1 and the “viral inactivation (in words)” value is “do not show significant activation”.

The values are drawn from patent US6399355B1 (priority 1995, dated 2002).
